Experimental data reported in patent US20240116985A1, “STAPLED PEPTIDES AND METHODS THEREOF” (priority 2020, published 2024).
≈ marks a conversion by molar mass, not a printed value. Where two headings read alike, the source gives them in different places.

How the values were obtained:
Solubility in PBS = type: physicochemical
Method: After ultracentrifugation of the PBS solution, the supernatant was analyzed by HPLC and compared to an HPLC injection 50 μM peptide DMSO solution. Solubility was determined by: [(Area of PBS peak)/(Area of DMSO peak)]*50 uM.

CHI Log D procedure = type: physicochemical
[1] = target: T1, full-length beta-Catenin (Uniprot ID P35222) (Homo sapiens, UniProt P35222); assay: Fluorescence polarization IC50 (beta-catenin / 5FAM-TCF4 10-53 competition); type: binding
T1 construct: 10 nM full-length beta-Catenin (Uniprot ID P35222)
T1 sequence (P35222 1-781): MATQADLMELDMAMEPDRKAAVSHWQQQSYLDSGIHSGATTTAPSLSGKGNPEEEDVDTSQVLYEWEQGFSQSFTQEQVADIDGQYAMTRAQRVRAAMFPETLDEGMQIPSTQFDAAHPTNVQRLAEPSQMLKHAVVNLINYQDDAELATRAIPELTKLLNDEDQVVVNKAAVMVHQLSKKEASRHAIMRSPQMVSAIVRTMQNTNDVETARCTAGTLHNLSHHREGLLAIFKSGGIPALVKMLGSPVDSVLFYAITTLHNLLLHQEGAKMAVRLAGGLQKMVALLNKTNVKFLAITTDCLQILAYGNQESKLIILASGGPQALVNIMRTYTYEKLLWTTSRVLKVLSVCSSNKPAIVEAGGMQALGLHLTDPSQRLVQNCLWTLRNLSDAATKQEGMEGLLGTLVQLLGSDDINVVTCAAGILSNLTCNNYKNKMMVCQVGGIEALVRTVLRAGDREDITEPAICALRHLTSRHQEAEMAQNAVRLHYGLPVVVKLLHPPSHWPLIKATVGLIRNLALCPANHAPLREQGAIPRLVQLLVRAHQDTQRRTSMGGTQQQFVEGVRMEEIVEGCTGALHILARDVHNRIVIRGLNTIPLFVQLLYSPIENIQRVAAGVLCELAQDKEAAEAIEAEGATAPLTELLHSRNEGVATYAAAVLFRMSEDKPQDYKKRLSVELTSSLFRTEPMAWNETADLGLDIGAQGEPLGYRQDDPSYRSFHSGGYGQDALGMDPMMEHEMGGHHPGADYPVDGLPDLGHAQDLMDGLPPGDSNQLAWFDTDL

[2] = target: T2, beta-catenin/TCF4 engagement (Homo sapiens, UniProt P35222); assay: Nano-BRET target engagement assay (B-cat-Halo & TCF4-Luc in HEK293 cells); type: cell-based; conditions: read-out: NanoBRET Abs IC50
T2 construct: expressed in transfected cells; host or cells: HEK293
T2 sequence (P35222 1-781): T1 sequence (P35222 1-781)

SMILES | Solubility (Solubility in PBS) | also measured
CC(=O)N1CCC[C@]12CC=CCCCC1(CCCC=CCCCOC(=O)N3CC[C@@](C(=O)N[C@@H](Cc4ccccc4)C(=O)N[C@@H](Cc4csc5ccccc45)C(=O)N[C@@H](CCC(N)=O)C(N)=O)(C3)NC(=O)[C@H](CC(C)C)NC(=O)[C@H](Cc3ccccc3)NC(=O)[C@H](C)NC(=O)[C@H](C)NC(=O)[C@H]([C@@H](C)O)NC(=O)[C@H](CC(=O)O)NC1=O)NC(=O)[C@H](CC(C)(C)C)NC(=O)[C@H](CC(N)=O)NC2=O (single isomer, unassigned) [I-1284, Ac-PL3-Asn-Npg-B5-Asp-Thr-Ala-Ala-Phe-Leu-PyrS2-Phe-BztA-Gln-NH2] | 10 µM (≈ 19 µg/mL) | –
CC(=O)N1CCC[C@]12CC=CCCCC1(CCCC=CCCCOC(=O)N3CC[C@@](C(=O)N[C@@H](Cc4ccccc4)C(=O)N[C@@H](Cc4csc5ccccc45)C(=O)N[C@@H](CCC(N)=O)C(N)=O)(C3)NC(=O)[C@H](CC(C)C)NC(=O)[C@H](Cc3ccccc3)NC(=O)[C@H](C)NC(=O)[C@H](C)NC(=O)[C@H]([C@@H](C)O)NC(=O)[C@H](CC(=O)O)NC1=O)NC(=O)[C@H](CC(C)(C)C)NC(=O)[C@H](CC(N)=O)NC2=O (single isomer, unassigned) [I-1285, Ac-PL3-Asn-Npg-B5-Asp-Thr-Ala-Ala-Phe-Leu-PyrS2-Phe-BztA-Gln-NH2] | 10 µM (≈ 19 µg/mL) | –
CC(=O)N1CCC[C@]12CC=CCCCC1(CCCC=CCCCOC(=O)N3CC[C@@](C(=O)N[C@@H](Cc4ccccc4)C(=O)N[C@@H](Cc4csc5ccccc45)C(=O)N[C@@H](CCC(N)=O)C(N)=O)(C3)NC(=O)[C@H](CC(C)C)NC(=O)[C@H](Cc3ccccc3)NC(=O)[C@H](C)NC(=O)[C@H](C)NC(=O)[C@H]([C@@H](C)O)NC(=O)[C@H](CC(=O)O)NC1=O)NC(=O)[C@H](C)NC(=O)[C@H](CC(N)=O)NC2=O (single isomer, unassigned) [I-1286, Ac-PL3-Asn-Ala-B5-Asp-Thr-Ala-Ala-Phe-Leu-PyrS2-Phe-BztA-Gln-NH2] | 10 µM (≈ 18.4 µg/mL) | –
CC(=O)N1CCC[C@]12CC=CCCCC1(CCCC=CCCCCCC[C@@](C)(C(=O)N[C@@H](Cc3ccccc3Cl)C(=O)N[C@@H](Cc3csc4ccccc34)C(=O)N[C@@H](CCC(N)=O)C(N)=O)NC(=O)[C@H]([C@@H](C)O)NC(=O)[C@H](Cc3ccccc3)NC(=O)[C@H](C)NC(=O)[C@H](C)NC(=O)[C@H](CC(=O)O)NC(=O)[C@H](CC(=O)O)NC1=O)NC(=O)[C@H](CC(C)(C)C)NC(=O)[C@H](CC(=O)O)NC2=O (stereo partly drawn) [I-1086, Ac-PL3-Asp-Npg-B5-Asp-Asp-Ala-Ala-Phe-Thr-S8-2C1F-BztA-Gln-NH2] | – | CHI Log D (CHI Log D procedure; pH 7.4): 2.709; IC50 ([1]; fluorescence polarization, beta-catenin, read-out: FP EC50): 12 nM; IC50 ([1]; read-out: beta-Catenin FP IC50): 12 nM; IC50 [2]: 10100 nM
CC(=O)N1CCC[C@]12CC=CCCCC1(CCCC=CCCCOC(=O)N3CC[C@@](C(=O)N[C@@H](Cc4ccsc4)C(=O)N[C@@H](Cc4csc5ccccc45)C(=O)N[C@@H](CCC(N)=O)C(N)=O)(C3)NC(=O)[C@H](CC(N)=O)NC(=O)[C@H](Cc3ccccc3)NC(=O)[C@H](C)NC(=O)[C@H](C)NC(=O)[C@H](CN(CC(=O)O)CC(F)(F)F)NC(=O)[C@H](CC(=O)O)NC1=O)NC(=O)[C@H](CC(C)(C)C)NC(=O)C[C@H](CC(=O)O)NC2=O (stereo partly drawn) [I-1161, Ac-PL3-RbGlu-Npg-B5-Asp-TfeGA-Ala-Ala-Phe-Asn-PyrS2-3Thi-BztA-Gln-NH2] | – | chromatographic logD (CHI Log D procedure; pH 7.4, CHI Log D): 2.08; IC50 ([1]; fluorescence polarization, read-out: beta-Catenin FP IC50): 24 nM; IC50 ([2]; absolute IC50): > 20000 nM

Now from value to molecule, other results behind:

Solubility (Solubility in PBS) | SMILES | also measured
10 µM (≈ 18.4 µg/mL) | CC(=O)N1CCC[C@]12CC=CCCCC1(CCCC=CCCCOC(=O)N3CC[C@@](C(=O)N[C@@H](Cc4ccccc4)C(=O)N[C@@H](Cc4csc5ccccc45)C(=O)N[C@@H](CCC(N)=O)C(N)=O)(C3)NC(=O)[C@H](CC(C)C)NC(=O)[C@H](Cc3ccccc3)NC(=O)[C@H](C)NC(=O)[C@H](C)NC(=O)[C@H]([C@@H](C)O)NC(=O)[C@H](CC(=O)O)NC1=O)NC(=O)[C@H](C)NC(=O)[C@H](CC(N)=O)NC2=O (single isomer, unassigned) [I-1287, Ac-PL3-Asn-Ala-B5-Asp-Thr-Ala-Ala-Phe-Leu-PyrS2-Phe-BztA-Gln-NH2] | –
10 µM (≈ 20 µg/mL) | CC(=O)N1CCC[C@]12CC=CCCCC1(CCCC=CCCCOC(=O)N3CC[C@@](C(=O)N[C@@H](Cc4ccccc4)C(=O)N[C@@H](Cc4csc5ccccc45)C(=O)N[C@@H](CCC(N)=O)C(N)=O)(C3)NC(=O)[C@H](CC(C)C)NC(=O)[C@H](Cc3ccccc3)NC(=O)[C@H](C)NC(=O)[C@H](CCCCNC(C)C)NC(=O)[C@H]([C@@H](C)O)NC(=O)[C@H](CC(=O)O)NC1=O)NC(=O)[C@H](CC(C)(C)C)NC(=O)[C@H](CC(N)=O)NC2=O (single isomer, unassigned) [I-1289, Ac-PL3-Asn-Npg-B5-Asp-Thr-iPrLys-Ala-Phe-Leu-PyrS2-Phe-BztA-Gln-NH2] | –
10 µM (≈ 18.9 µg/mL) | CC(=O)N1CCC[C@]12CC=CCCCC1(CCCC=CCCCOC(=O)N3CC[C@@](C(=O)N[C@@H](Cc4ccccc4)C(=O)N[C@@H](Cc4ccc5ccccc5c4)C(=O)N[C@@H](CCC(N)=O)C(N)=O)(C3)NC(=O)[C@H](CC(C)C)NC(=O)[C@H](Cc3ccccc3)NC(=O)[C@H](C)NC(=O)[C@H](C)NC(=O)[C@H]([C@@H](C)O)NC(=O)[C@H](CC(=O)O)NC1=O)NC(=O)[C@H](CC(C)(C)C)NC(=O)[C@H](CC(N)=O)NC2=O (single isomer, unassigned) [I-1291, Ac-PL3-Asn-Npg-B5-Asp-Thr-Ala-Ala-Phe-Leu-PyrS2-Phe-2NapA-Gln-NH2] | –
10 µM (≈ 18.9 µg/mL) | CC(=O)N1CCC[C@]12CC=CCCCC1(CCCC=CCCCOC(=O)N3CC[C@@](C(=O)N[C@@H](Cc4ccccc4)C(=O)N[C@@H](Cc4ccc5ccccc5c4)C(=O)N[C@@H](CCC(N)=O)C(N)=O)(C3)NC(=O)[C@H](CC(C)C)NC(=O)[C@H](Cc3ccccc3)NC(=O)[C@H](C)NC(=O)[C@H](C)NC(=O)[C@H]([C@@H](C)O)NC(=O)[C@H](CC(=O)O)NC1=O)NC(=O)[C@H](CC(C)(C)C)NC(=O)[C@H](CC(N)=O)NC2=O (single isomer, unassigned) [I-1292, Ac-PL3-Asn-Npg-B5-Asp-Thr-Ala-Ala-Phe-Leu-PyrS2-Phe-2NapA-Gln-NH2] | –
10 µM (≈ 18.4 µg/mL) | CC(=O)N1CCC[C@]12CC=CCCCC1(CCCC=CCCCOC(=O)N3CC[C@@](C(=O)N[C@@H](Cc4ccccc4)C(=O)N[C@@H](Cc4csc5ccccc45)C(=O)N[C@@H](CCC(N)=O)C(N)=O)(C3)NC(=O)[C@H](CC(C)C)NC(=O)[C@H](Cc3ccccc3)NC(=O)[C@H](C)NC(=O)[C@H](C)NC(=O)[C@H]([C@@H](C)O)NC(=O)[C@H](CC(N)=O)NC1=O)NC(=O)[C@H](C)NC(=O)[C@H](CC(=O)O)NC2=O (single isomer, unassigned) [I-1295, Ac-PL3-Asp-Ala-B5-Asn-Thr-Ala-Ala-Phe-Leu-PyrS2-Phe-BztA-Gln-NH2] | –
10 µM (≈ 18.7 µg/mL) | CC(=O)N1CCC[C@]12CC=CCCCC1(CCCC=CCCCOC(=O)N3CC[C@@](C(=O)N[C@@H](Cc4ccccc4)C(=O)N[C@@H](Cc4csc5ccccc45)C(=O)N[C@H](C(N)=O)[C@@H](C)O)(C3)NC(=O)[C@H](CC(C)C)NC(=O)[C@H](Cc3ccccc3)NC(=O)[C@H](C)NC(=O)[C@H](C)NC(=O)[C@H]([C@@H](C)O)NC(=O)[C@H](CC(N)=O)NC1=O)NC(=O)[C@H](CC(C)(C)C)NC(=O)[C@H](CC(=O)O)NC2=O (single isomer, unassigned) [I-1299, Ac-PL3-Asp-Npg-B5-Asn-Thr-Ala-Ala-Phe-Leu-PyrS2-Phe-BztA-Thr-NH2] | –
10 µM (≈ 18.7 µg/mL) | CC(=O)N1CCC[C@]12CC=CCCCC1(CCCC=CCCCOC(=O)N3CC[C@@](C(=O)N[C@@H](Cc4ccccc4)C(=O)N[C@@H](Cc4csc5ccccc45)C(=O)N[C@H](C(N)=O)[C@@H](C)O)(C3)NC(=O)[C@H](CC(C)C)NC(=O)[C@H](Cc3ccccc3)NC(=O)[C@H](C)NC(=O)[C@H](C)NC(=O)[C@H]([C@@H](C)O)NC(=O)[C@H](CC(N)=O)NC1=O)NC(=O)[C@H](CC(C)(C)C)NC(=O)[C@H](CC(=O)O)NC2=O (single isomer, unassigned) [I-1300, Ac-PL3-Asp-Npg-B5-Asn-Thr-Ala-Ala-Phe-Leu-PyrS2-Phe-BztA-Thr-NH2] | –
